According to ChEMBL document CHEMBL1165912, “Synthesis and binding analysis of unique AG2 pentasaccharide to human Siglec-2 using NMR techniques” (Bioorg Med Chem, 2010):
pKd: −log10 of the molar value.

Molecular target: T1, B-cell receptor CD22 (Homo sapiens, UniProt P20273)
T1 sequence (P20273 whole entry): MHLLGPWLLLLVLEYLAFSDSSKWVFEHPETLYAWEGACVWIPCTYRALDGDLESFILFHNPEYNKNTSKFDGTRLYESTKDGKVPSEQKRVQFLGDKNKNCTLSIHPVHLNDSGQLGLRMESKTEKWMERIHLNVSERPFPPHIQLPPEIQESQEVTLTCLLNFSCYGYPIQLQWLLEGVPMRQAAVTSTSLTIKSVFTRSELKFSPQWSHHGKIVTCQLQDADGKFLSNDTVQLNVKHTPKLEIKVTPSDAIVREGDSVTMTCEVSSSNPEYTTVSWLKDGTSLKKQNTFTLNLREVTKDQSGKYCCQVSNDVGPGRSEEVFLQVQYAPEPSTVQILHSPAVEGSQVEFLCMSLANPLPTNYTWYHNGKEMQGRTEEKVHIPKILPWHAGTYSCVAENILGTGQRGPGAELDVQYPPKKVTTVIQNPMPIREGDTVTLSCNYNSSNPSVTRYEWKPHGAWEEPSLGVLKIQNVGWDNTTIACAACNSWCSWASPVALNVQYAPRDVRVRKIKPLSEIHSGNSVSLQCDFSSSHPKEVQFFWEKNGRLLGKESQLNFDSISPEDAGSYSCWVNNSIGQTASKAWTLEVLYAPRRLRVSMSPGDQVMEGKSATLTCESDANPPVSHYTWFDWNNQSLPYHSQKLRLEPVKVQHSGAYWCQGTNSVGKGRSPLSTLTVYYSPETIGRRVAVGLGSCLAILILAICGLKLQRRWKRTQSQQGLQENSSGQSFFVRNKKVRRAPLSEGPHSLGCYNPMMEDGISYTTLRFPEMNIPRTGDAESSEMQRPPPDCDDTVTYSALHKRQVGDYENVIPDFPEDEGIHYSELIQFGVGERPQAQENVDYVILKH
Assay: Binding affinity to human SIGLEC2 by saturation transfer difference-titration assay

- pKd: 2.70
SMILES: CC(=O)N[C@H]1[C@@H]([C@H](O)[C@H](O)CO)O[C@@](O[C@H]2[C@@H](O)[C@@H](CO)O[C@@H](O[C@H]3[C@H](O)[C@@H](O)[C@H](OCC[Si](C)(C)C)O[C@@H]3CO)[C@@H]2O)(C(=O)O)C[C@@H]1O[C@H]1O[C@H](CO)[C@H](O)[C@H](O[C@@H]2O[C@@H]([C@H](O)CO)[C@H](O)[C@H]2O)[C@H]1O (stereo in doubt)
